# Test results reported in patent US3935309A, “Synergistic combinations of phosphonomycin and bacteriostatic agents” (Merck & Co., Inc., priority 1974, dated 1976).
# Where “and” joins values, the source holds several entries; their conditions need not be identical. Identical values can stand only once.
# Legend:
# bacterial cell wall = assay: mode of action on bacteria; format: cell-based
# Excerpt: In accordance with one embodiment of this invention, pathogenic bacteria are controlled by concomitantly contacting these pathogens with phosphonomycin and a bacteriostatic chemotherapeutic agent. The action of the phosphonomycin is to potentiate, augment or synergise the activity of the bacteriostatic agent. This potentiation of the bacteriostats is indeed unexpected since the bacteriostatic agents have an entirely different mode of action than phosphonomycin. […] Thus, phosphonomycin is indeed unique among antibiotics in that it is capable of potentiating the important bacteriostatic chemotherapeutic agents.
# Staphylococcus aureus [1] = assay: criss-cross MIC method in nutrient broth (Example 2); format: cell-based; conditions: 2nd substance chloramphenicol (CLM)
# Description: This method involved the simultaneous determination of the MIC (minimum inhibitory concentration) of each member of a pair of antibiotics and of combinations of the two in nutrient broth (NB) containing 0.2% yeast extract (YE). Serial two-fold dilutions were made throughout the experiment, and the starting inoculum consisted of approximately 25,000 cells/ml. of Staphylococcus aureus. Incubation was at 37°C. for 24 hours. Identical experiments were performed on two different days.
# Pseudomonas stutzeri = assay: MIC by two-fold serial broth dilution, alone and in combination (Example 1); format: cell-based
# Description: (§1) The MIC (minimum inhibitory concentration) of phosphonomycin and each of the other antibiotics by itself was determined before the combination synergy experiment was begun, as follows: 2 ml. of a double strength solution in sterile distilled water of the highest strength to be tested (usually 1000γ) was added to a tube of double strength nutrient broth (NB) and mixed thoroughly. Two-fold serial dilutions were then made by transferring 2 ml. to the next tube (1 × NB) and so on for approximately 12 tubes. The tubes were inoculated with one drop each of a 1:50 dilution of a culture adjusted to a Lumetron 60 reading in NB + 0.2% yeast extract so as to provide a concentration of cells of approximately 25,000/ml. The tubes were then incubated at 37°C. and examined for growth at 24, 48 and 72 hours.
# (§2) In the combination experiment, the MIC value obtained as described above was used as approximately the midpoint of the range to be tested for each of the two antibiotics of the combination. In a manner similar to the above, two-fold dilutions of the first substance in the combination were made except that 1.8 ml. volumes were used and a 2.2 × strength solution of both the antibiotic and the NB were made. The second antibiotic of the combination was added to duplicate rows of serial dilutions of the first substance as follows: 0.2 ml. in NB of a [formula] and a [formula] respectively, of the second substance was added to each tube in a row of serial dilutions of the first antibiotic. The final concentration that resulted enabled the determination of the effect of both MIC/4 and MIC/8 of each substance in the presence of from approximately 32 MIC to [formula] of the other. Inocula were added as in the initial single MIC experiment.
# Klebsiella pneumoniae = assay: as above; format: cell-based
# Description: as §1, §2
# Pseudomonas aeruginosa = assay: as above; format: cell-based
# Description: as §1, §2
# Streptococcus faecalis [2] = assay: as above; format: cell-based
# Description: as §1, §2
# Staphylococcus aureus [3] = assay: as above; format: cell-based
# Description: as §1, §2
# Proteus vulgaris = assay: as above; format: cell-based
# Description: as §1, §2
# Escherichia coli 2017 = assay: Combined antibiotic therapy of Escherichia coli infection in mice (Example 5); format: in vivo, mice infected with Escherichia coli 2017
# Excerpt: (§3) For example, using Escherichia coli 2017 as the infecting agent, sodium phosphonomycin was titrated alone and in the presence 5 and also in the presence of 0.5γtetracycline, while tetracycline was titrated alone and in the presence of 50γ, and also in the presence of 5γof sodium phosphonomycin. The two drugs were given by the subcutaneous route at separate sites on the ventral surface of the mouse. Such therapy was given only at the time of infection for the Escherichia coli and Pseudomonas aeruginosa tests but both at the time of infection and 6 hours later for all other tests. Infection was given intraperitoneally using broth suspensions of the test organism.
# [4] = system: test organisms of Example 1; assay: Summary of the twelve combination synergy tests (Example 1); format: cell-based
# Description: as §1
# In the combination experiment, the MIC value obtained as described above was used as approximately the midpoint of the range to be tested for each of the two antibiotics of the combination. In a manner similar to the above, two-fold dilutions of the first substance in the combination were made except that 1.8 ml. volumes were used and a 2.2 × strength solution of both the antibiotic and the NB were made. […]
# Streptococcus faecalis [5] = assay: MIC by two-fold serial broth dilution, alone and in combination (Example 1); format: cell-based; conditions: 2nd substance novobiocin; MIC/2 instead of ≤ MIC/4
# [6] = system: Pseudomonas aeruginosa 3210; assay: Combined antibiotic therapy of experimental infection in mice (Example 5); format: in vivo, mice infected with Pseudomonas aeruginosa 3210; conditions: 10 LD50
# Excerpt: as §3
# pathogenic bacteria = assay: in vitro combination tests with various pathogens (general description); format: cell-based
# Excerpt: Other experimental results have shown that novobiocin, chlortetracycline and sulfisoxazole are potentiated when combined with phosphonomycin and tested with various strains of pathogenic bacteria.
# [7] = chloramphenicol repeat test, 7 LD50, phosphonomycin titrated, chloramphenicol constant 5
# [8] = chloramphenicol repeat test, 7 LD50, phosphonomycin titrated, chloramphenicol constant 50
# [9] = chloramphenicol test 1, 9 LD50, phosphonomycin titrated, chloramphenicol constant 3
# [10] = chloramphenicol test 1, 9 LD50, phosphonomycin titrated, chloramphenicol constant 30
# [11] = tetracycline repeat test, 7 LD50, phosphonomycin titrated, tetracycline constant 1
# [12] = tetracycline repeat test, 7 LD50, phosphonomycin titrated, tetracycline constant 10
# [13] = tetracycline test 1, 9 LD50, alone
# [14] = tetracycline test 1, 9 LD50, phosphonomycin titrated, tetracycline constant 0.5
# [15] = tetracycline test 1, 9 LD50, phosphonomycin titrated, tetracycline constant 5
# [16] = phosphonomycin titrated, novobiocin constant 100
# [17] = phosphonomycin titrated, novobiocin constant 1000
smiles,measurement,setting,value
"C[C@@H]1O[C@@H]1P(=O)(O)O [Phosphonomycin, (-) (cis-1,2-epoxypropyl)phosphonic acid]",mode of action,bacterial cell wall,bactericidal in action
same,spheroplasts,bacterial cell wall; certain bacterial strains exposed to the antibiotic,detection of spheroplasts
same,Phosphonomycin MIC in presence of MIC/4 of 2nd subst.,Staphylococcus aureus [1],15.6 µg/mL and 7.8 µg/mL
same,Phosphonomycin MIC in presence of ≤ MIC/4 of 2nd substance,Pseudomonas stutzeri; 2nd substance novobiocin,16
same,MIC,"Pseudomonas stutzeri; Stutzerimonas stutzeri, read-out: Phosphonomycin MIC",> 220 µg/mL
same,Phosphonomycin MIC in presence of ≤ MIC/4 of 2nd substance,Klebsiella pneumoniae; 2nd substance novobiocin,5.8
same,MIC,"Klebsiella pneumoniae; Klebsiella pneumoniae, alone, read-out: Phosphonomycin MIC",750 µg/mL
same,Phosphonomycin MIC in presence of ≤ MIC/4 of 2nd substance,Pseudomonas aeruginosa; 2nd substance erythromycin,12
same,Phosphonomycin MIC in presence of ≤ MIC/4 of 2nd substance,Pseudomonas aeruginosa; 2nd substance novobiocin,93.6
same,Phosphonomycin MIC in presence of ≤ MIC/4 of 2nd substance,Streptococcus faecalis [2]; 2nd substance chlortetracycline,48
same,Phosphonomycin MIC in presence of ≤ MIC/4 of 2nd substance,Streptococcus faecalis [2]; 2nd substance erythromycin,192
same,MIC,"Streptococcus faecalis [2]; Enterococcus faecalis, alone, read-out: Phosphonomycin MIC",93.6 µg/mL
same,Phosphonomycin MIC,"Streptococcus faecalis [2]; alone, in µg/mL",96 and 48
same,Phosphonomycin MIC in presence of ≤ MIC/4 of 2nd substance,Staphylococcus aureus [3]; 2nd substance erythromycin,24
same,Phosphonomycin MIC in presence of ≤ MIC/4 of 2nd substance,Staphylococcus aureus [3]; 2nd substance novobiocin,48
same,Phosphonomycin MIC in presence of 2nd substance,"Proteus vulgaris; 2nd substance chlortetracycline, MIC/2 instead of ≤ MIC/4",24 µg/mL
same,Phosphonomycin MIC in presence of ≤ MIC/4 of 2nd substance,Proteus vulgaris; 2nd substance erythromycin,96
same,Phosphonomycin MIC in presence of ≤ MIC/4 of 2nd substance,Proteus vulgaris; 2nd substance novobiocin,6.8
same,% ED50,"Escherichia coli 2017; chloramphenicol repeat test, 7 LD50, alone",100%
same,s.c. ED50,"Escherichia coli 2017; chloramphenicol repeat test, 7 LD50, alone, single dose at 0 hour, phosphonomycin as sodium salt",276 µg
same,% ED50,"Escherichia coli 2017; chloramphenicol repeat test, 7 LD50, chloramphenicol titrated, phosphonomycin constant 5",2%
same,% ED50,"Escherichia coli 2017; chloramphenicol repeat test, 7 LD50, chloramphenicol titrated, phosphonomycin constant 50",19%
same,% ED50,Escherichia coli 2017; [7],33%
same,s.c. ED50,Escherichia coli 2017; [7],92 µg
same,% ED50,Escherichia coli 2017; [8],9%
same,s.c. ED50,Escherichia coli 2017; [8],26 µg
same,% ED50,"Escherichia coli 2017; chloramphenicol test 1, 9 LD50, alone",100%
same,s.c. ED50,"Escherichia coli 2017; chloramphenicol test 1, 9 LD50, alone, single dose at 0 hour, phosphonomycin as sodium salt",905 µg
same,% ED50,"Escherichia coli 2017; chloramphenicol test 1, 9 LD50, chloramphenicol titrated, phosphonomycin constant 10",1%
same,% ED50,"Escherichia coli 2017; chloramphenicol test 1, 9 LD50, chloramphenicol titrated, phosphonomycin constant 100",11%
same,% ED50,Escherichia coli 2017; [9],100%
same,s.c. ED50,Escherichia coli 2017; [9],905 µg
same,% ED50,Escherichia coli 2017; [10],55%
same,s.c. ED50,Escherichia coli 2017; [10],500 µg
same,% ED50,"Escherichia coli 2017; tetracycline repeat test, 7 LD50, alone",100%
same,s.c. ED50,"Escherichia coli 2017; tetracycline repeat test, 7 LD50, alone, single dose at 0 hour, phosphonomycin as sodium salt",350 µg
same,% ED50,Escherichia coli 2017; [11],108%
same,s.c. ED50,Escherichia coli 2017; [11],380 µg
same,% ED50,Escherichia coli 2017; [12],111%
same,s.c. ED50,Escherichia coli 2017; [12],390 µg
same,% ED50,"Escherichia coli 2017; tetracycline repeat test, 7 LD50, tetracycline titrated, phosphonomycin constant 0.5",2%
same,% ED50,"Escherichia coli 2017; tetracycline repeat test, 7 LD50, tetracycline titrated, phosphonomycin constant 50",14%
same,% ED50,Escherichia coli 2017; [13],100%
same,"% ED50, Combined %",Escherichia coli 2017; [13],100%
same,s.c. ED50,"Escherichia coli 2017; tetracycline test 1, 9 LD50, alone, single dose at 0 hour, phosphonomycin as sodium salt",1000 µg
same,% ED50,Escherichia coli 2017; [14],100%
same,s.c. ED50,Escherichia coli 2017; [14],1000 µg
same,% ED50,Escherichia coli 2017; [15],43%
same,s.c. ED50,Escherichia coli 2017; [15],427 µg
same,% ED50,"Escherichia coli 2017; tetracycline test 1, 9 LD50, tetracycline titrated, phosphonomycin constant 5",.5%
same,% ED50,"Escherichia coli 2017; tetracycline test 1, 9 LD50, tetracycline titrated, phosphonomycin constant 50",5%
same,antagonism by the combination of antibiotics,[4],in no case was there any evidence of antagonism
same,tests in which potentiating effect of phosphonomycin is observed,[4],eight of the twelve tests
same,Phosphonomycin MIC in presence of 2nd substance,Streptococcus faecalis [5],24 µg/mL
same,% ED50,[6]; alone,100%
same,s.c. ED50,"[6]; alone, therapy at 0 hour only, phosphonomycin as sodium salt",1420 µg
same,% ED50,[6]; [16],88%
same,s.c. ED50,[6]; [16],1250 µg
same,% ED50,[6]; [17],195%
same,s.c. ED50,[6]; [17],2760 µg
same,tests in which phosphonomycin potentiated the effect of chloramphenicol,"pathogenic bacteria; almost 200 pathogenic bacteria, about 15,000 individual tests",88%
same,antagonism,pathogenic bacteria; between phosphonomycin and each of chloramphenicol and erythromycin,no antagonism
same,antagonism,pathogenic bacteria; various tests with human pathogens,does not exhibit any antagonism
same,synergism,"pathogenic bacteria; with chloramphenicol, erythromycin, tetracyclines, novobiocin and sulfisoxazole, inhibition at one quarter or less of MIC of each",acts synergistically
